Measurements from patent US20240018124A1, “MODULATORS OF FPR1 AND METHODS OF USING THE SAME” (BIOFRONT LTD, priority 2021, published 2024).

How the values were obtained:
FPR1 [1] = molecular target: T1, FPR1 (Homo sapiens (Human), UniProt P21462); assay: Cyclic adenosine monophosphate (cAMP) assay, CHO-K1 cells stably overexpressing hFPR1; assay type: cell-based; conditions: 2.5 μM Forskolin and 0.25 nM WKYMVm (FPR1 agonist)
Method: Cyclic Adenosine Monophosphate (cAMP) Assay
CHO-K1 cells stably overexpressing hFPR1 were plated into 384-well cell culture plates (2,000/well/5 μL) in 1× Stimulation Buffer (LANCE Ultra cAMP Kit, Perkin Elmer, TRF0263). 1 μL compound solution (prepared in ddH2O containing 0.2% DMSO) was added to each well. Plates were centrifuged briefly, and cells were incubated at 37° C. in 5% CO2 for 10 minutes. 4 μL solution containing 2.5 μM Forskolin and 0.25 nM WKYMVm (an FPR1 agonist, GLPBIO, GC15140) was then added to each well. 5 μL of Eu-cAMP solution (diluted to manufacturer's recommended working concentration in Detection Buffer, LANCE Ultra cAMP Kit) and 5 μL of ULight-anti-cAMP solution (diluted in Detection Buffer, LANCE Ultra cAMP Kit) were added to each well. Plates were centrifuged briefly, and cells were incubated at room temperature for 1 hour. Fluorescence emission at 665 nm and 620 nm from the samples was measured by a Perkin Elmer Envision instrument.
(§1) The effects of the compounds of the present disclosure on regulating the FPR1-mediated cell signaling were measured by monitoring the cellular cAMP level change and anti-reactive oxygen species formation in human neutrophils in the presence of an FPR1 agonist, respectively, as illustrated by the examples in Table 1.

FPR1 [2] = molecular target: T1, FPR1; assay: Reactive oxygen species (ROS) assay in human neutrophils stimulated with fMLP; assay type: cell-based; conditions: human neutrophils from whole blood; fMLP (500 nM); DCFH-DA fluorescence; read-out: Anti-ROS IC50
Method: Reactive Oxygen Species (ROS) Assay
Human whole blood was collected, and ACK lysis buffer (ThermoFisher, A1049201) was added at 3 times the volume of the blood sample to lyse the red blood cells. The sample was incubated on ice for 15 minutes, and gently mixed twice during the incubation. 10 mL DPBS was then added, and the sample was centrifuged for 8 minutes. After removing the supernatant, remaining cells were resuspended in RPMI1640 medium containing 3% FBS and centrifuged again for 10 minutes. After removing the supernatant, cells were again resuspended in RPMI1640 medium containing 3% FBS. Neutrophil cell count was determined using FACS analysis by APC-labeled CD11b antibody (Biolegend, 101211) and FITC-labeled CD66b antibody (Biolegend, 305104). Neutrophils were then plated into 96-well plates (300,000/well). Plates were centrifuged and supernatant was removed. Cells were resuspended in 80 μL of compound solution (prepared in RPMI1640 medium containing 3% FBS), then incubated at room temperature for 15 minutes. 20 μL solution containing DCFH-DA (at the manufacturer's recommended concentration, Yeasen Biotechnology, 50101ES01) and fMLP (500 nM) was then added. Cells were incubated at 37° C. in 5% CO2 for 20 minutes away from light. After incubation, cells were placed on ice for 5 minutes, washed twice with 200 μL ice-cold DPBS, then resuspended in ice-cold DPBS at 100 µL/well. Fluorescence from each sample was measured at 485 nm excitation and 535 nm emission.
as §1

T1 sequence (P21462 whole entry): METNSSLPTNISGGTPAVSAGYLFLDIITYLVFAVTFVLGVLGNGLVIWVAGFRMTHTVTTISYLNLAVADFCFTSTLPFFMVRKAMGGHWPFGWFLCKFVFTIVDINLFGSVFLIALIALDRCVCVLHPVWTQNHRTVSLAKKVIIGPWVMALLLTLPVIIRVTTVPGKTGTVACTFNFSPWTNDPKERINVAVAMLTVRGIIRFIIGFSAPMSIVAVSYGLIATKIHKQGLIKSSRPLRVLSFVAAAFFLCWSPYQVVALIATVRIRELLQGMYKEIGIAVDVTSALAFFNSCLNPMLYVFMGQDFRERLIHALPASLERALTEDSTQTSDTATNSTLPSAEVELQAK

IC50 (FPR1 [1]) | IC50 (FPR1 [2]) | Compound
1 to 25 µM | 1 to 25 µM | C[C@H](NC(=O)c1c(NS(=O)(=O)c2ccc(Cl)cc2)c(C2=CCC3(CC2)OCCO3)nn1C)C(C)(C)C [Compound 24, (S)-4-((4-chlorophenyl)sulfonamido)-N-(3,3-dimethylbutan-2-yl)-1-methyl-3-(1,4-dioxaspiro[4.5]dec-7-en-8-yl)-1H-pyrazole-5-carboxamide]
0.1 to 1 µM | 0.1 to 1 µM | C[C@H](NC(=O)c1c(NS(=O)(=O)c2ccc(C#N)cc2)c(C2CCOCC2)nn1C)C(C)(C)C [Compound 25, (S)-4-((4-cyanophenyl)sulfonamido)-N-(3,3-dimethylbutan-2-yl)-1-methyl-3-(tetrahydro-2H-pyran-4-yl)-1H-pyrazole-5-carboxamide]
1 to 25 µM | 0.1 to 1 µM | C[C@H](NC(=O)c1c(NS(=O)(=O)c2ccc(C3CC3)cc2)c(-c2ccc(F)cc2)nn1C)C(C)(C)C [Compound 26, (S)-4-((4-cyclopropylphenyl)sulfonamido)-N-(3,3-dimethylbutan-2-yl)-3-(4-fluorophenyl)-1-methyl-1H-pyrazole-5-carboxamide]
0.1 to 1 µM | 0.1 to 1 µM | COc1ccc(S(=O)(=O)Nc2c(-c3ccc(F)cc3)nn(C)c2C(=O)N[C@@H](C)C(C)(C)C)cc1 [Compound 27, (S)—N-(3,3-dimethylbutan-2-yl)-3-(4-fluorophenyl)-4-((4-methoxyphenyl)sulfonamido)-1-methyl-1H-pyrazole-5-carboxamide]
0.1 to 1 µM | 0.1 to 1 µM | C[C@H](NC(=O)c1c(NS(=O)(=O)c2ccc(C#N)cc2F)c(-c2ccc(F)cc2)nn1C)C(C)(C)C [Compound 28, (S)-4-((4-cyano-2-fluorophenyl)sulfonamido)-N-(3,3-dimethylbutan-2-yl)-3-(4-fluorophenyl)-1-methyl-1H-pyrazole-5-carboxamide]
0.1 to 1 µM | 0.1 to 1 µM | COCc1ccccc1-c1nn(C)c(C(=O)N[C@@H](C)C(C)(C)C)c1NS(=O)(=O)c1ccc(C)cc1 [Compound 33, (S)—N-(3,3-dimethylbutan-2-yl)-3-(2-(methoxymethyl)phenyl)-1-methyl-4-((4-methylphenyl)sulfonamido)-1H-pyrazole-5-carboxamide]
0.1 to 1 µM | 0.1 to 1 µM | C[C@H](NC(=O)c1c(NS(=O)(=O)c2ccc(Cl)cc2)c(C2CCC(F)(F)CC2)nn1C)C(C)(C)C [Compound 37, (S)-4-((4-chlorophenyl)sulfonamido)-3-(4,4-difluorocyclohexyl)-N-(3,3-dimethylbutan-2-yl)-1-methyl-1H-pyrazole-5-carboxamide]
0.1 to 1 µM | 0.1 to 1 µM | C[C@H](NC(=O)c1c(NS(=O)(=O)c2ccc(Cl)cc2)c(-c2ccc(F)cc2)nn1C)C(C)(C)C [Compound 38, (S)-4-((4-chlorophenyl)sulfonamido)-N-(3,3-dimethylbutan-2-yl)-3-(4-fluorophenyl)-1-methyl-1H-pyrazole-5-carboxamide]
0.1 to 1 µM | 0.1 to 1 µM | C[C@H](NC(=O)c1c(NS(=O)(=O)c2ccc(Cl)cc2)c(-c2ccccc2C(F)F)nn1C)C(C)(C)C [Compound 39, (S)-4-((4-chlorophenyl)sulfonamido)-3-(2-(difluoromethyl)phenyl)-N-(3,3-dimethylbutan-2-yl)-1-methyl-1H-pyrazole-5-carboxamide]
0.1 to 1 µM | 0.1 to 1 µM | C[C@H](NC(=O)c1c(NS(=O)(=O)c2ccc(C#N)cc2)c(-c2ccc(F)cc2F)nn1C)C(C)(C)C [Compound 41, (S)-4-((4-cyanophenyl)sulfonamido)-3-(2,4-difluorophenyl)-N-(3,3-dimethylbutan-2-yl)-1-methyl-1H-pyrazole-5-carboxamide]
> 25 µM | > 25 µM | COCc1ncccc1-c1nn(C)c(C(=O)N[C@@H](C)C(C)(C)C)c1NS(=O)(=O)c1ccc(C#N)cc1 [Compound 42, (S)-4-((4-cyanophenyl)sulfonamido)-N-(3,3-dimethylbutan-2-yl)-3-(2-(methoxymethyl)pyridin-3-yl)-1-methyl-1H-pyrazole-5-carboxamide]
1 to 25 µM | 0.1 to 1 µM | C[C@H](NC(=O)c1c(NS(=O)(=O)c2ccc(C#N)cc2)c(C2=CCC(F)(F)CC2)nn1C)C(C)(C)C [Compound 43, (S)-4-((4-cyanophenyl)sulfonamido)-3-(4,4-difluorocyclohex-1-en-1-yl)-N-(3,3-dimethylbutan-2-yl)-1-methyl-1H-pyrazole-5-carboxamide]
0.1 to 1 µM | 0.1 to 1 µM | C[C@H](NC(=O)c1c(NS(=O)(=O)c2ccc(C#N)cc2)c(C2CCC(F)(F)CC2)nn1C)C(C)(C)C [Compound 44, (S)-4-((4-cyanophenyl)sulfonamido)-3-(4,4-difluorocyclohexyl)-N-(3,3-dimethylbutan-2-yl)-1-methyl-1H-pyrazole-5-carboxamide]
